Assay results published in ChEMBL document CHEMBL5108004, “An auristatin-based peptide-drug conjugate targeting Kita-Kyushu lung cancer antigen 1 for precision chemoradiotherapy in gastric cancer” (Eur J Med Chem, 2022).
Active and inactive are the calls of the source. No cut-off for these calls is given here. *1 amine or outer side, *2 acyl side, *3 side chain or, on linkers, in order; H or OH if unused. Where a SMILES comes first, the peptide text is derived from it. Bridges are numbered along the chain shown (N, C = ends). Roman numbers before positions name the chains, in order. [ ]: non-standard residue; d: D form. The star is where a group is joined. Hexanoyl(6-succinimido-3yl) = O=C1CC([*:1])C(=O)N1CCCCCC(=O)[*:2]; Dolaproine = CO[C@@H]([C@@H]1CCCN1)[C@@H](C)C(=O)O; Dil = CC[C@H](C)[C@H](NC)[C@@H](CC(=O)O)OC; PABC = O=C(OCc1ccc(N[*:1])cc1)[*:2]; X1 = C[C@@H](N*)[C@@H](O)c1ccccc1; Cit = NC(=O)NCCC[C@H](N)C(=O)O; NMeV = CN[C@H](C(=O)O)C(C)C

What was measured:
[1] = Toxicity in male BALB/c nude mouse xenografted with KK-LC-1-positive human MKN-45 cells assessed as body weight loss at 0.3 mg/kg, iv administered twice a week for 3 weeks; assay type: organism-based; conditions: in vivo, 504 h
[2] = molecular target: T1, Kita-kyushu lung cancer antigen 1 (Homo sapiens) (UniProt Q5H943); experiment: Binding affinity to KK-LC-1 in KK-LC-1-positive human NUGC-4 cells using FITC-labeled compound at 1 to 1000 uM incubated for 30 mins and measured by flow cytometry assay; assay type: cell-based; conditions: dose 1-1000 µM
T1 sequence (whole entry): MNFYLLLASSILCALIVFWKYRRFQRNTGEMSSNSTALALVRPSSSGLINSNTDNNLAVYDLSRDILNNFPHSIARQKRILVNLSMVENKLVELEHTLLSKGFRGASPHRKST

[3] = tested on: NUGC-4; experiment: Antitumor activity against KK-LC-1-positive human NUGC-4 cells xenografted in male BALB/c nude mouse assessed as reduction in tumor burden at 0.3 mg/kg, iv administered once a week for 3 weeks followed by exposure to 2 Gy gamma irradiation for 2 consecutive days once a week for 3 weeks; assay type: functional, organism-based
[4] = Toxicity in male BALB/c nude mouse xenografted with KK-LC-1-positive human MKN-45 cells assessed as effect on kidney function at 2 mg/kg, iv administered twice a week for 3 weeks; assay type: organism-based; conditions: in vivo, 504 h
[5] = tested on: MKN-45; experiment: Antitumor activity against KK-LC-1-positive human MKN-45 cells xenografted in male BALB/c nude mouse assessed as induction of tumor regression at 1 mg/kg, iv administered twice a week for 3 weeks; assay type: functional, organism-based
[6] = molecular target: T1, Kita-kyushu lung cancer antigen 1 (Homo sapiens); experiment: Binding affinity to KK-LC-1 in KK-LC-1-positive human MKN-45 cells using FITC-labeled compound at 1 to 1000 uM incubated for 30 mins and measured by flow cytometry assay; assay type: cell-based; conditions: dose 1-1000 µM
[7] = tested on: MKN-45; experiment: Induction of DNA damage in KK-LC-1-positive human MKN-45 cells assessed as double strand breaks by measuring increase in gamma-H2AX foci formation at 100 nM incubated for 24 hrs followed by exposure to 2 Gy gamma irradiation by immunofluorescence staining method; assay type: functional, cell-based
[8] = Toxicity in male BALB/c nude mouse xenografted with KK-LC-1-positive human NUGC-4 cells assessed as mouse survival at 0.3 mg/kg, iv administered once a week for 3 weeks followed by exposure to 2 Gy gamma irradiation for 2 consecutive days once a week for 3 weeks measured after 47 days; assay type: organism-based; conditions: in vivo
[9] = tested on: MKN-45; experiment: Induction of apoptosis in KK-LC-1-positive human MKN-45 cells at 100 nM incubated for 24 hrs followed by exposure to 2 Gy gamma irradiation by AnnexinV/PI-staining based flow cytometry; assay type: functional, cell-based
[10] = Biodistribution in tumor of nude mouse xenografted with KK-LC-1-positive human NUGC-4 cells using Cy5-labeled compound at 10 nmol, iv and measured after 24 hrs by near-infrared imaging method; assay type: ADME, organism-based, Neoplasm; conditions: in vivo
[11] = tested on: NUGC-4; experiment: Cell cycle arrest in KK-LC-1-positive human NUGC-4 cells assessed as increase accumulation at G2/M phase at 100 nM measured after 0 to 48 hrs by propidium iodide staining based flow cytometric analysis; assay type: functional; conditions: time 0-48 hrs, TDE = time-dependent effect
[12] = tested on: NUGC-4; experiment: Induction of mitotic arrest in KK-LC-1-positive human NUGC-4 cells xenografted in nude mouse assessed as number of pHH3-positive nuclei in tumor at 4 nmol, iv administered as single dose and measured after 24 hrs by pHH3 immunohistochemical staining method relative to control; assay type: functional
[13] = tested on: MKN-45; experiment: Antitumor activity against KK-LC-1-positive human MKN-45 cells xenografted in male BALB/c nude mouse assessed as induction of tumor regression at 2 mg/kg, iv administered twice a week for 3 weeks; assay type: functional, organism-based
[14] = tested on: MKN-45; experiment: Antitumor activity against KK-LC-1-positive human MKN-45 cells xenografted in male BALB/c nude mouse assessed as induction of tumor regression at 0.3 mg/kg, iv administered twice a week for 3 weeks; assay type: functional, organism-based
[15] = Toxicity in male BALB/c nude mouse xenografted with KK-LC-1-positive human MKN-45 cells assessed as body weight loss at 1 mg/kg, iv administered twice a week for 3 weeks; assay type: organism-based; conditions: in vivo, 504 h
[16] = Toxicity in male BALB/c nude mouse xenografted with KK-LC-1-positive human MKN-45 cells administered intravenously twice a week for 3 weeks; conditions: in vivo, route iv
[17] = Stability in PBS at 37 degreeC measured after 48 hrs by HPLC analysis; assay type: physicochemical; conditions: buffer
[18] = tested on: NUGC-4; experiment: Cell cycle arrest in KK-LC-1-positive human NUGC-4 cells assessed as accumulation at G2/M phase at 40 nM measured after 24 hrs by propidium iodide staining based flow cytometric analysis (reference value: 21.5 +/- 0.7 %); assay type: functional
[19] = Toxicity in male BALB/c nude mouse xenografted with KK-LC-1-positive human MKN-45 cells assessed as increase in survival of mouse at 0.3 mg/kg, iv administered twice a week for 3 weeks; assay type: organism-based; conditions: in vivo, 504 h
[20] = Ratio IC50 for cytotoxicity against KK-LC-1-negative human HGC-27 cells to IC50 for cytotoxicity against KK-LC-1-positive human MKN-45 cells
[21] = molecular target: T1, Kita-kyushu lung cancer antigen 1 (Homo sapiens); experiment: Binding affinity to recombinant KK-LC-1 (unknown origin) using FITC-labeled compound at 0.1 to 1000 uM incubated for 2 hrs and measured by FLISA assay; conditions: dose 0.1-1000 µM
[22] = tested on: NUGC-4; experiment: Cytotoxicity against KK-LC-1-positive human NUGC-4 cells incubated for 72 hrs by CCK-8 assay; assay type: functional, cell-based; conditions: NUGC-4, 72 h
[23] = tested on: MKN-45; experiment: Cell cycle arrest in KK-LC-1-positive human MKN-45 cells assessed as increase accumulation at G2/M phase at 100 nM measured after 0 to 48 hrs by propidium iodide staining based flow cytometric analysis; assay type: functional; conditions: time 0-48 hrs, TDE = time-dependent effect
[24] = Drug uptake in KK-LC-1-positive human NUGC-4 cells using FITC-labeled compound at 100 uM incubated for 10 to 70 mins and assessed as drug internalization measured by DAPI staining method; assay type: ADME, cell-based; conditions: nugc-4, 100 µM, time 10-70 min
[25] = Toxicity in male BALB/c nude mouse xenografted with KK-LC-1-positive human MKN-45 cells assessed as effect on kidney function at 0.3 mg/kg, iv administered twice a week for 3 weeks; assay type: organism-based; conditions: in vivo, 504 h
[26] = Toxicity in male BALB/c nude mouse xenografted with KK-LC-1-positive human MKN-45 cells assessed as effect on liver function at 0.3 mg/kg, iv administered twice a week for 3 weeks; assay type: organism-based; conditions: in vivo, 504 h
[27] = tested on: NUGC-4; experiment: Cell cycle arrest in KK-LC-1-positive human NUGC-4 cells assessed as accumulation at G2/M phase at 100 nM measured after 24 hrs by propidium iodide staining based flow cytometric analysis (reference value: 21.5 +/- 0.7 %); assay type: functional
[28] = tested on: MKN-45; experiment: Cell cycle arrest in KK-LC-1-positive human MKN-45 cells assessed as increase accumulation at G2/M phase at 20 to 100 nM measured after 24 hrs by propidium iodide staining based flow cytometric analysis; assay type: functional; conditions: dose 20-100 nM, DDE = dose-dependent effect
[29] = Toxicity in male BALB/c nude mouse xenografted with KK-LC-1-positive human MKN-45 cells assessed as effect on liver function at 1 mg/kg, iv administered twice a week for 3 weeks; assay type: organism-based; conditions: in vivo, 504 h

## CC[C@H](C)[C@@H]([C@@H](CC(=O)N1CCC[C@H]1[C@H](OC)[C@@H](C)C(=O)N[C@H](C)[C@@H](O)c1ccccc1)OC)N(C)C(=O)[C@@H](NC(=O)[C@@H](NC(=O)[C@H](C(C)C)N(C)C(=O)OCc1ccc(NC(=O)[C@H](CCCNC(N)=O)NC(=O)[C@@H](NC(=O)CCCCCN2C(=O)CC(SC[C@H](N)C(=O)N[C@H]3CSSC[C@@H](C(=O)O)NC(=O)[C@H]([C@@H](C)O)NC(=O)[C@H]([C@@H](C)O)NC(=O)[C@H](CC(C)C)NC(=O)[C@H](C)NC(=O)[C@H]([C@@H](C)O)NC(=O)[C@H](CC(N)=O)NC(=O)[C@H](CCCCN)NC3=O)C2=O)C(C)C)cc1)C(C)C)C(C)C (some centres undefined) (I: H-CCKNTALTTC-OH / II: V[Cit][PABC][NMeV]VV[Dil][Dolaproine]-X1; linker I:1-II:N via Hexanoyl(6-succinimido-3yl); disulfide I:2-I:10)
[1]
  Activity: Non-Toxic
[2]
  Activity: Active
[3]
  Activity: Active
[4]
  Activity: Non-Toxic
[5]
  Activity: Active
[6]
  Activity: Active
[7]
  Activity: Active
[8]
  survival at 504 h: 83.3%
[9]
  Activity: Active
[10]
  Drug uptake: Active
[11]
  Activity: Tde
[12]
  Activity: 87
[13]
  Activity: Active
[14]
  Activity: Active
[15]
  Activity: Non-Toxic
[16]
  MTD at 504 h: 2 mg/kg
[17]
  Stability: Stable
[18]
  Activity: 49.53%
[19]
  Activity: Non-Toxic
[20]
  Ratio IC50: 100
[21]
  Activity: Active
[22]
  IC50: 3.87 nM
[23]
  Activity: Tde
[24]
  Drug uptake: Active
[25]
  Activity: Non-Toxic
[26]
  Activity: Non-Toxic
[27]
  Activity: 67.4%
[28]
  Activity: Dde
[29]
  Activity: Non-Toxic
